Laboratory results from patent US10377753B2, “Substituted 4-azaindoles and their use as GluN2B receptor modulators” (Janssen Pharmaceutica NV, priority 2015, dated 2019).

Target: cloned human NR1/NR2B ion channels (Homo sapiens (Human), UniProt Q05586+Q13224)
Experiment: HNR2BC: effects of test articles on cloned human NR1/NR2B ion channels expressed in mammalian cells (FLIPR calcium flux)
Format: cell-based
Conditions: cloned human NR1/NR2B ion channels, Table 5
How it was run: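 Compounds were added to dye-loaded cells for 5 min with fluorescence monitored for agonism, followed by co-agonists (glutamate ~EC80, glycine 10 μM saturating) for 5 min. Cells stably expressed inducible human NR1/NR2B, and the buffer was pH 7.4. The FLIPR Ca2+ flux signal was normalized against control wells.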

Chain of cloned human NR1/NR2B ion channels (Q13224 27-1484, other chains not shown): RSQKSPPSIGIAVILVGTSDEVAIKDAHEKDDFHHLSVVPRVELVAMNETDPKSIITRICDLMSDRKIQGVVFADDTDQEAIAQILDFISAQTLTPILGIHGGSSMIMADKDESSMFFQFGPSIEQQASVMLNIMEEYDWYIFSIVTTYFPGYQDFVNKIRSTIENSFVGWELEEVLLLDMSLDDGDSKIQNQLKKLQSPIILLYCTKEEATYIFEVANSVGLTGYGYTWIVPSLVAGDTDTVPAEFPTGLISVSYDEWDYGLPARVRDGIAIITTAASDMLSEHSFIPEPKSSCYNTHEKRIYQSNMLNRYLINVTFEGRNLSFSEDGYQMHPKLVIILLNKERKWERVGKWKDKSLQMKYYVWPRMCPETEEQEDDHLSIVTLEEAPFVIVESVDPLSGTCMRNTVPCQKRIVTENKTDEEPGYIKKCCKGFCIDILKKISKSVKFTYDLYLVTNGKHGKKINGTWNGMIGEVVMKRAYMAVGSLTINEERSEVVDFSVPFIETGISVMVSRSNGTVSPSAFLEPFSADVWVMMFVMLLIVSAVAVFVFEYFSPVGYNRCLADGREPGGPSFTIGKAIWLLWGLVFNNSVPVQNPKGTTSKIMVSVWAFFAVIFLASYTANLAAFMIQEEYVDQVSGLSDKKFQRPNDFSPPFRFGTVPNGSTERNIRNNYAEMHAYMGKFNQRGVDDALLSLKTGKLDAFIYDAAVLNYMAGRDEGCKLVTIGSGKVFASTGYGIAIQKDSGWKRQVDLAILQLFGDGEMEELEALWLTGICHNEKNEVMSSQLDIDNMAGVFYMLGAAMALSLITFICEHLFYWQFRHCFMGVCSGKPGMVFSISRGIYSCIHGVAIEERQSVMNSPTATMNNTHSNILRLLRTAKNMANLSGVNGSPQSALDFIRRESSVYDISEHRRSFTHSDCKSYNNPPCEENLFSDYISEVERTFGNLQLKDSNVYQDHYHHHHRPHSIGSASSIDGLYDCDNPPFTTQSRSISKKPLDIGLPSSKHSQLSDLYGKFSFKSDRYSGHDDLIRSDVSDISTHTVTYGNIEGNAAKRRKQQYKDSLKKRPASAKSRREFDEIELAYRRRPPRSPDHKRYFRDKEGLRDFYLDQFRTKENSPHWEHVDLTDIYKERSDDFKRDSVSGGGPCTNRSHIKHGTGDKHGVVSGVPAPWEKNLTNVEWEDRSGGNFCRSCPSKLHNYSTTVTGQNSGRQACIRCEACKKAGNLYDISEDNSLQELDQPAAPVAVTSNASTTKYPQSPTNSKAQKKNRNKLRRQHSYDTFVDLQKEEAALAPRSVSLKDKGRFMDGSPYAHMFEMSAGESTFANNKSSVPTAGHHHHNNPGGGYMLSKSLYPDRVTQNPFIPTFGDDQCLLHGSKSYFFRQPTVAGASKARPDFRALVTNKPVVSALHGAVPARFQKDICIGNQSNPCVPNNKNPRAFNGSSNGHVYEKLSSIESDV

| Compound | IC50 [nM] |
| --- | --- |
| O=C(Cn1cc(Cl)c2ncc(-c3cccc(F)c3)cc21)N1CC(F)C1 [Example 543, 2-[3-Chloro-6-(3-fluorophenyl)pyrrolo[3,2-b]pyridin-1-yl]-1-(3-fluoroazetidin-1-yl)ethanone] | 20 |
| CN(C)C(=O)Cn1cc(Cl)c2ncc(-c3cccc(Cl)c3F)cc21 [Example 544, 2-[3-Chloro-6-(3-chloro-2-fluoro-phenyl)pyrrolo[3,2-b]pyridin-1-yl]-N,N-dimethyl-acetamide] | 31.6 |
| Cc1cccc(-c2cnc3c(F)c(C)n(CC(=O)N4CCC4)c3c2)c1 [Example 547, 1-(Azetidin-1-yl)-2-[3-fluoro-2-methyl-6-(m-tolyl)pyrrolo[3,2-b]pyridin-1-yl]ethanone] | 398 |
| Cc1cn(CC(=O)N2CCC2)c2cc(-c3ccc(F)c(F)c3)cnc12 [Example 548, 1-(Azetidin-1-yl)-2-[6-(3,4-difluorophenyl)-3-methyl-pyrrolo[3,2-b]pyridin-1-yl]ethanone] | 79.4 |
| Cc1cccc(-c2cnc3c(C)cn(CC(=O)N4CC(F)C4)c3c2)c1 [Example 550, 1-(3-Fluoroazetidin-1-yl)-2-[3-methyl-6-(m-tolyl)pyrrolo[3,2-b]pyridin-1-yl]ethanone] | 126 |
| Cc1cn(CC(=O)N2CCC2)c2cc(-c3cc(F)cc(F)c3)cnc12 [Example 556, 1-(Azetidin-1-yl)-2-[6-(3,5-difluorophenyl)-3-methyl-pyrrolo[3,2-b]pyridin-1-yl]ethanone] | 398 |
| CCN(C)C(=O)Cn1cc(C)c2ncc(-c3cc(F)cc(F)c3)cc21 [Example 557, 2-[6-(3,5-Difluorophenyl)-3-methyl-pyrrolo[3,2-b]pyridin-1-yl]-N-ethyl-N-methyl-acetamide] | 126 |
| Cc1cn(CC(=O)N(C)C)c2cc(-c3ccc(F)cc3)cnc12 [Example 558, 2-[6-(4-Fluorophenyl)-3-methyl-pyrrolo[3,2-b]pyridin-1-yl]-N,N-dimethyl-acetamide] | 79.4 |
| CCN(C)C(=O)Cn1cc(C)c2ncc(-c3ccc(F)cc3)cc21 [Example 559, N-Ethyl-2-[6-(4-fluorophenyl)-3-methyl-pyrrolo[3,2-b]pyridin-1-yl]-N-methyl-acetamide] | 158 |
| CCN(C)C(=O)Cn1cc(C)c2ncc(-c3cccc(C)c3F)cc21 [Example 560, N-Ethyl-2-[6-(2-fluoro-3-methyl-phenyl)-3-methyl-pyrrolo[3,2-b]pyridin-1-yl]-N-methyl-acetamide] | 794 |
| Cc1cccc(-c2cnc3c(C)cn(CC(=O)N4CCC4)c3c2)c1F [Example 561, 1-(Azetidin-1-yl)-2-[6-(2-fluoro-3-methyl-phenyl)-3-methyl-pyrrolo[3,2-b]pyridin-1-yl]ethanone] | 398 |
| Cc1cc(-c2cnc3c(C)cn(CC(=O)N(C)C)c3c2)ccc1F [Example 566, 2-[6-(4-Fluoro-3-methyl-phenyl)-3-methyl-pyrrolo[3,2-b]pyridin-1-yl]-N,N-dimethyl-acetamide] | 50.1 |
| Cc1cccc(-c2cnc3c(C)cn(CC(=O)N(C)C)c3c2)c1 [Example 572, N,N-Dimethyl-2-[3-methyl-6-(m-tolyl)pyrrolo[3,2-b]pyridin-1-yl]acetamide] | 79.4 |
| Cc1csc(-c2cnc3c(C)cn(CC(=O)N4CC(F)C4)c3c2)c1 [Example 575, 1-(3-Fluoroazetidin-1-yl)-2-[3-methyl-6-(4-methyl-2-thienyl)pyrrolo[3,2-b]pyridin-1-yl]ethanone] | 79.4 |
| Cc1cn(CC(=O)N2CC(F)C2)c2cc(-c3ccccc3)cnc12 [Example 578, 1-(3-Fluoroazetidin-1-yl)-2-(3-methyl-6-phenyl-pyrrolo[3,2-b]pyridin-1-yl)ethanone] | 126 |
| Cc1cn(CC(=O)N2CC(F)(F)C2)c2cc(-c3ccccc3)cnc12 [Example 579, 1-(3,3-Difluoroazetidin-1-yl)-2-(3-methyl-6-phenyl-pyrrolo[3,2-b]pyridin-1-yl)ethanone] | 63.1 |
| Cc1cc(-c2cnc3c(C)cn(CC(=O)N4CC(F)C4)c3c2)ccc1F [Example 580, 1-(3-Fluoroazetidin-1-yl)-2-[6-(4-fluoro-3-methyl-phenyl)-3-methyl-pyrrolo[3,2-b]pyridin-1-yl]ethanone] | 79.4 |

The remaining compounds from weak to strong by IC50, led by results:

| IC50 [nM] | Compound |
| --- | --- |
| 501 | CCN(C)C(=O)Cn1cc(C)c2ncc(-c3cccc(C(F)(F)F)c3)cc21 [Example 568, N-Ethyl-N-methyl-2-[3-methyl-6-[3-(trifluoromethyl)phenyl]pyrrolo[3,2-b]pyridin-1-yl]acetamide] |
| 398 | Cc1cn(CC(=O)N2CC(F)(F)C2)c2cc(-c3cccc(C(F)(F)F)c3)cnc12 [Example 569, 1-(3,3-Difluoroazetidin-1-yl)-2-[3-methyl-6-[3-(trifluoromethyl)phenyl]pyrrolo[3,2-b]pyridin-1-yl]ethanone] |
| 200 | Cc1cn(CC(=O)N2CC(F)C2)c2cc(-c3cccc(C(F)(F)F)c3)cnc12 [Example 554, 1-(3-Fluoroazetidin-1-yl)-2-[3-methyl-6-[3-(trifluoromethyl)phenyl]pyrrolo[3,2-b]pyridin-1-yl]ethanone] |
| 200 | Cc1cn(CC(=O)N2CCCC2)c2cc(-c3cccc(C(F)(F)F)c3)cnc12 [Example 567, 2-[3-Methyl-6-[3-(trifluoromethyl)phenyl]pyrrolo[3,2-b]pyridin-1-yl]-1-pyrrolidin-1-yl-ethanone] |
| 200 | CCN(C)C(=O)Cn1cc(C)c2ncc(-c3ccccc3)cc21 [Example 577, N-Ethyl-N-methyl-2-(3-methyl-6-phenyl-pyrrolo[3,2-b]pyridin-1-yl)acetamide] |
| 126 | Cc1cccc(-c2cnc3c(C)cn(CC(=O)N4CCCC4)c3c2)c1F [Example 565, 2-[6-(2-Fluoro-3-methyl-phenyl)-3-methyl-pyrrolo[3,2-b]pyridin-1-yl]-1-pyrrolidin-1-yl-ethanone] |
| 126 | Cc1csc(-c2cnc3c(C)cn(CC(=O)N(C)C)c3c2)c1 [Example 573, N,N-Dimethyl-2-[3-methyl-6-(4-methyl-2-thienyl)pyrrolo[3,2-b]pyridin-1-yl]acetamide] |
| 100 | Cc1cccc(-c2cnc3c(C)cn(CC(=O)N4CC(F)(F)C4)c3c2)c1F [Example 564, 1-(3,3-Difluoroazetidin-1-yl)-2-[6-(2-fluoro-3-methyl-phenyl)-3-methyl-pyrrolo[3,2-b]pyridin-1-yl]ethanone] |
| 100 | Cc1cn(CC(=O)N(C)C)c2cc(-c3ccccc3)cnc12 [Example 576, N,N-Dimethyl-2-(3-methyl-6-phenyl-pyrrolo[3,2-b]pyridin-1-yl)acetamide] |
| 79.4 | Cc1cn(CC(=O)N(C)C)c2cc(-c3ccc(F)c(F)c3)cnc12 [Example 549, 2-[6-(3,4-Difluorophenyl)-3-methyl-pyrrolo[3,2-b]pyridin-1-yl]-N,N-dimethyl-acetamide] |
| 79.4 | Cc1cn(CC(=O)N2CCC2)c2cc(-c3cccc(C(F)(F)F)c3)cnc12 [Example 552, 1-(Azetidin-1-yl)-2-[3-methyl-6-[3-(trifluoromethyl)phenyl]pyrrolo[3,2-b]pyridin-1-yl]ethanone] |
| 79.4 | Cc1cn(CC(=O)N(C)C)c2cc(-c3cccc(C(F)(F)F)c3)cnc12 [Example 553, N,N-Dimethyl-2-[3-methyl-6-[3-(trifluoromethyl)phenyl]pyrrolo[3,2-b]pyridin-1-yl]acetamide] |
| 79.4 | Cc1csc(-c2cnc3c(C)cn(CC(=O)N4CCC4)c3c2)c1 [Example 574, 1-(Azetidin-1-yl)-2-[3-methyl-6-(4-methyl-2-thienyl)pyrrolo[3,2-b]pyridin-1-yl]ethanone] |
| 79.4 | Cc1cccc(-c2cnc3c(C)cn(CC(=O)N4CCC4)c3c2)c1 [Example 581, 1-(Azetidin-1-yl)-2-[3-methyl-6-(m-tolyl)pyrrolo[3,2-b]pyridin-1-yl]ethanone] |
| 63.1 | Cc1cn(CC(=O)N2CC(F)C2)c2cc(-c3ccc(F)c(F)c3)cnc12 [Example 551, 2-[6-(3,4-Difluorophenyl)-3-methyl-pyrrolo[3,2-b]pyridin-1-yl]-1-(3-fluoroazetidin-1-yl)ethanone] |
| 63.1 | Cc1cn(CC(=O)N(C)C)c2cc(-c3cc(F)cc(F)c3)cnc12 [Example 555, 2-[6-(3,5-Difluorophenyl)-3-methyl-pyrrolo[3,2-b]pyridin-1-yl]-N,N-dimethyl-acetamide] |
| 63.1 | Cc1cn(CC(=O)N2CCC2)c2cc(-c3cc(F)c(F)c(F)c3)cnc12 [Example 570, 1-(Azetidin-1-yl)-2-[3-methyl-6-(3,4,5-trifluorophenyl)pyrrolo[3,2-b]pyridin-1-yl]ethanone] |
| 50.1 | Cc1cccc(-c2cnc3c(C)cn(CC(=O)N(C)C)c3c2)c1F [Example 562, 2-[6-(2-Fluoro-3-methyl-phenyl)-3-methyl-pyrrolo[3,2-b]pyridin-1-yl]-N,N-dimethyl-acetamide] |
| 50.1 | Cc1cn(CC(=O)N(C)C)c2cc(-c3cc(F)c(F)c(F)c3)cnc12 [Example 571, N,N-Dimethyl-2-[3-methyl-6-(3,4,5-trifluorophenyl)pyrrolo[3,2-b]pyridin-1-yl]acetamide] |
| 39.8 | O=C(Cn1cc(Cl)c2ncc(-c3cccc(C(F)F)c3)cc21)N1CC(F)C1 [Example 546, 2-[3-Chloro-6-[3-(difluoromethyl)phenyl]pyrrolo[3,2-b]pyridin-1-yl]-1-(3-fluoroazetidin-1-yl)ethanone] |
| 39.8 | Cc1cccc(-c2cnc3c(C)cn(CC(=O)N4CC(F)C4)c3c2)c1F [Example 563, 1-(3-Fluoroazetidin-1-yl)-2-[6-(2-fluoro-3-methyl-phenyl)-3-methyl-pyrrolo[3,2-b]pyridin-1-yl]ethanone] |
| 31.6 | CCc1cccc(-c2cnc3c(Cl)cn(CC(=O)N4CC(F)C4)c3c2)c1 [Example 542, 2-[3-Chloro-6-(3-ethylphenyl)pyrrolo[3,2-b]pyridin-1-yl]-1-(3-fluoroazetidin-1-yl)ethanone] |
| 12.6 | O=C(Cn1cc(Cl)c2ncc(-c3cccc(Cl)c3)cc21)N1CC(F)C1 [Example 545, 2-[3-Chloro-6-(3-chlorophenyl)pyrrolo[3,2-b]pyridin-1-yl]-1-(3-fluoroazetidin-1-yl)ethanone] |
